Experiments:
[1] = Fluorescence anisotropy titration, equilibrium binding to DMPC small unilamellar vesicles; type: physicochemical; conditions: for KDMPC overall association constant: electroneutral DMPC vesicles, PBS pH 7.4, 37° C., K values subject to 10% uncertainty
Procedure: (§1) As a consequence of the brilliant fluorescence emissions from the newly synthesized homosilatecans (a summary of the spectral parameters can be found in Table 1), the lipid bilayer adsorption isotherms summarized in FIG. 4 were relatively free from any background signal. The method of fluorescence anisotropy titration was used to construct the adsorption isotherms. The experiments were conducted at drug concentrations of 1 μM in PBS buffer (37° C.). […] Because of the potential of the lactone ring of the homosilatecans and camptothecins to hydrolyze in PBS, anisotropy values at each lipid concentration were determined immediately (approx. 1 min.) following the addition of the lactone form of each agent to the liposome suspension as to minimize any possibility of conversion to the carboxylate form. Using drug concentrations of 1 μM and long pass filters to isolate emitted light from background signal (that is, scattered exciting light and extraneous fluorescence signal resulting from the possible presence of impurities), signal levels from drugs dissolved in PBS buffer were typically 99.97% in the absence of membrane and greater than 98% in the presence of membrane. Adsorption isotherms were used to determine overall association constants for the homosilatecan, silatecan, and camptothecin drugs. Overall association constants are defined as: K=[AB]/[AF][L] where [AB] represents the concentration of bound drug, [AF] represents the concentration of free drug, and [L] represents the total lipid concentration in the vesicle suspension. This equation is valid when the concentration of free lipid is approximately equal to the concentration of total lipid (that is, the concentration of free lipid is in significant excess over the concentration of bound drug). Provided this condition is satisfied, K may be determined from the inverse of the slope of a double reciprocal plot. In such a double reciprocal plot, 1/fraction of the total drug bound is plotted vs. 1/lipid concentration, with a y-intercept value of 1 (for a system displaying binding site homogeneity). Such double-reciprocal plots for the associations of the new homosilatecans analogs (both lactone and carboxylate forms) with DMPC and DMPG small unilamellar vesicle (SUV) preparations were linear with good correlation coefficients.
(§2) The studies summarized in Table 2 examine the structural basis of homosilatecan associations for lipid bilayers. Two types of membranes were included in these studies which were conducted under near physiological conditions of pH and temperature; these membranes include fluid-phase and electroneutral L-α-dimyristoylphosphatidyl-choline (DMPC); and fluid-phase and negatively-charged L-α-dimyristoylphosphatidylglycerol (DMPG). DMPC and DMPG have identical chain length but the charges on their head groups differ.
(§3) In the studies of Table 2, binding isotherms were constructed using the method of fluorescence anisotropy titration as discussed above, and K values were determined from the slopes of the double-reciprocal plots. The K values are subject to 10% uncertainty. One of the most striking features of the data contained in Table 2 is the strong modulation which can be achieved through the creation of A,B,E-ring modified camptothecins (for example, the homosilatecans known as DB-38, DB-90, and DB-91) or B,E-ring modified camptothecins (for example, the homosilatecan known as DB-81). Homosilatecans containing either a sole substitution at the 7 position or dual substitution at the 7 and 10 positions have been created and found to display very high lipophilicities. Included in Table 2 are camptothecin compounds (topotecan and camptothecin). For DB-81, the lipophilicity for DMPC membranes relative to corresponding value for topotecan increases over 1,400-fold. Data for these agents were included to show the highly lipophilic nature of the new homocamptothecins relative to compounds such as topotecan and camptothecin. […]

[2] = Lactone ring stability in mouse blood by HPLC; conditions: for Ratio of Lactone Level Mouse/Human / underestimation of human blood lactone level by mouse blood: blood; for Ratio of Lactone Level Mouse/Human: 3 hours of incubation; for Percent Lactone in Mouse Blood after 3 Hours of Incubation: pH 7.4, 37° C.; for underestimation of human blood lactone level by mouse blood: 3 hours
Procedure: The hydrolysis kinetics of camptothecins in the presence of different blood components were determined by a quantitative C18 reversed-phase high-performance liquid chromatography (HPLC) assay modified from methodologies described previously in the literature cited above. The preparation of whole blood and fractionated blood samples was carried out as described previously. Crystallized HSA of high purity (>97%) from Sigma Chemical (St. Louis, Mo.) was used. HSA stock solutions were prepared in PBS buffer with a final pH of 7.40±0.05. HSA concentrations were determined by UV absorbance at 278 nm using an extinction coefficient of 39,800 M^−1 cm^−1 (Porter, 1992). All other agents were reagent grade and were used without further purification. High purity water provided by a Milli-Q UV PLUS purification system (Bedford, Mass.) was utilized in all experiments. HPLC solvents were from Fisher Scientific. Human plasma and red blood cells were obtained from Central Kentucky Blood Center. […] Blood from mice was collected in heparinized tubes and stored at 5-10° C. until use.
HPLC assays were performed either on a Waters Alliance 2690 HPLC system equipped with a temperature-controlled autosampler and Waters 474 scanning fluorescence detector. A second HPLC system was composed of a Waters HPLC system composed of 501 HPLC pumps, 717 Plus temperature-controlled autosampler and 470 scanning fluorescence detector. The HPLC assay procedures used for the homosilatecans are summarized below. Solvent A consisted of acetonitrile and Solvent B was 2% triethylammonium acetate, pH 5.5, with a flow rate of 1 ml/min. For DB-38 an isocratic elution was used: 33% Solvent A; 67% Solvent B; λex:345 nm and λem:518 nm. For DB-81 an isocratic elution was used: 56% Solvent A; 44% Solvent B; and λex:375 nm and λem:444 nm. For DB-90 an isocratic elution was used: 41% Solvent A; 59% Solvent B; λex:412 nm and λem:526 nm. For DB-91 an isocratic elution of 42% Solvent A, 58% Solvent B, and λex:392 nm and λem:562 nm.
To determine drug stability in whole blood, whole blood was incubated at 37° C. for 30 min and pH determined. Blood pH was adjusted to 7.4+/−0.5 using either 0.1 M KOH or 0.1 M HCl. Blood samples were incubated at 37° C. for 30 min and pH remeasured to ensure that it is within the range before an individual assay was started. Aliquots of blood (2 ml each) were removed and placed in three disposable glass test tubes and the tubes were incubated at 37° C. […] Incubation at 37° C. was continued and 150 μl aliquots were removed at different time points and added to 600 μl of cold methanol (−20° C.) in an eppendorf tube. The tube was then vortexed for 10 sec and centrifuged in a table top microcentrifuge at 8000 rpm for 45 sec. The Supernatant was removed and placed in an autosampler vial and the vial quickly added to the autosampler maintained at 4° C. The sample was analyzed immediately on the HPLC set-up. The data analysis was as described for the drug in PBS only samples.

[3] = Lactone ring stability in PBS containing human serum albumin by HPLC; type: in vitro ADME; conditions: PBS with 30 mg/ml HSA, 37° C., 1 μM
Procedure: (§4) FIG. 13 depicts the improved stabilities of four novel homosilatecans of the current invention following incubation in PBS containing 30 mg/ml human serum albumin at 37° C. […] All the experiments of FIG. 14 were conducted in human plasma at 37° C. Plasma samples were continuously aerated by a stream of blood gas resulting in the maintenance of pH at values of 7.5±0.1.
(§5) HPLC solvents were from Fisher Scientific.
To study the stabilities of homosilatecans in PBS containing human serum albumin (HSA), the HSA was dissolved in PBS, pH 7.4 at the concentration of 30 mg/ml and incubated at 37° C. The pH was measured and adjusted to 7.4+/−0.5 using 0.1 M KOH or 0.1 M HCl. Incubation continued until pH stabilized within the target range. An aliquot of PBS/HSA was removed and placed in an autosampler vial and maintained at 37° C. for 10 min. An aliquot of the drug in DMSO was added to the sample resulting in a final drug concentration of 1 μM. The vial was quickly added to the HPLC autosampler maintained at 37° C. and aliquots were injected and analyzed by HPLC at different time points. The data analysis was as described above for the drug in PBS only samples.

[4] = Lactone ring stability in PBS by HPLC; type: physicochemical; conditions: 37° C., 1 μM
Procedure: FIG. 12 contrasts the improved stabilities of four novel homosilatecans of the present invention with their corresponding silatecan structure containing the α-hydroxylactone functionality. All the experiments of FIG. 12 were conducted in PBS at 37° C.
as §5
To determine the stabilities of homosilatecans in PBS, an aliquot of each of the homosilatecans in DMSO was added to phosphate buffered saline (PBS), pH 7.4 in a HPLC autosampler vial maintained at 37° C. in a water bath to result in final drug concentration of 1 μM. The drug-containing vial was quickly transferred to the autosampler maintained at 37° C. and aliquots analyzed at various time points. All the determinations were done in triplicate. The data was collected and analyzed using Waters Millenium software. The fraction of lactone was calculated using the peak area of lactone and carboxylate peak and using the lactone/carboxylate ratio.

[5] = Lactone ring stability in whole human blood by HPLC; conditions: for Percent Lactone in Human Blood after 3 Hours of Incubation: pH 7.4, 37° C. (Table 4); for % Lactone: whole human blood, 1 μM
Procedure: All experiments were conducted at pH 7.4 and 37° C.
as §5

[6] = Lactone ring stability in human plasma by HPLC; type: in vitro ADME; conditions: 3 hours, 37° C., pH 7.5, 1 μM
Procedure: as §4, §5
To characterize the stabilities of the novel silatecans of interest in human plasma, frozen plasma was incubated at 37° C. in order to thaw. Blood gas was bubbled through the plasma to adjust the pH close to 7.5. […] The samples were then allowed to incubate further at 37° C. […] Tubes were vortexed for 10 sec and centrifuged in a tabletop microcentrifuge at 8000 rpm for 45 sec. […] The sample was analyzed by HPLC as soon as possible. The data analysis was as described for drug in PBS only samples as described above. Blood gas was continuously bubbled through the plasma samples to pH at 7.5+/−[…].

[7] = Fluorescence anisotropy titration, equilibrium binding to DMPG small unilamellar vesicles; type: physicochemical; conditions: negatively charged DMPG vesicles, PBS pH 7.4, 37° C.; K values subject to 10% uncertainty
Procedure: as §1, §2, §3

## CCC1(O)CC(=O)OCc2c1cc1n(c2=O)Cc2c-1nc1ccc(N)cc1c2[Si](C)(C)C(C)(C)C (racemic) [DB-90, 5-Ethyl-1,4,5,13-tetrahydro-5-hydroxy-10-amino-12-tert-butyldimethylsilyl-3H,15H-oxepino[3′,4′:6,7]indolizino[1,2-b]quinoline-3,15-dione]
[1]
  decrease in DMPC binding upon ring opening (lactone vs carboxylate): 10 fold
  KDMPC overall association constant: 8600 M⁻¹
[2]
  Ratio of Lactone Level Mouse/Human: 0.7
  Percent Lactone in Mouse Blood after 3 Hours of Incubation: 61%
[3]; 3 hours
  % Lactone: 86.8 ± 0.2%
[3]; 24 hours
  % Lactone: 42.0 ± 2.7%
[4]; PBS pH 7.4, 3 hours
  % Lactone: 83.7 ± 0.5%
[4]; PBS pH 7.4, 24 hours
  % Lactone: 26.1 ± 1.0%
[5]
  Percent Lactone in Human Blood after 3 Hours of Incubation: 85%
[5]; 24 hours incubation, 37° C.
  % Lactone: 24.6 ± 1.3%
[6]
  % Lactone: 71.1 ± 3.5%
[7]
  KDMPG overall association constant: 9300 M⁻¹

## CCC1(O)CC(=O)OCc2c1cc1n(c2=O)Cc2c-1nc1ccccc1c2[Si](C)(C)C(C)(C)C (racemic) [DB-81, 5-Ethyl-1,4,5,13-tetrahydro-5-hydroxy-12-tert-butyldimethylsilyl-3H,15H-oxepino[3′,4′:6,7]indolizino[1,2-b]quinoline-3,15-dione]
[1]; 1 μM, pH 7.4
  increase of lipophilicity for DMPC membranes relative to topotecan: over 1,400 fold
[1]
  KDMPC overall association constant: 14400 M⁻¹
[2]
  underestimation of human blood lactone level by mouse blood: 6%
  Ratio of Lactone Level Mouse/Human: 0.9
  Percent Lactone in Mouse Blood after 3 Hours of Incubation: 80%
[3]; 3 hours
  % Lactone: 88.1 ± 0.2%
[3]; 24 hours
  % Lactone: 42.5 ± 1.6%
[4]; PBS pH 7.4, 3 hours
  % Lactone: 84.9 ± 0.3%
[4]; PBS pH 7.4, 24 hours
  % Lactone: 30.9 ± 2.0%
[5]
  Percent Lactone in Human Blood after 3 Hours of Incubation: 87%
[5]; 24 hours incubation, 37° C.
  % Lactone: 27.0 ± 2.3%
[6]
  % Lactone: 85.0 ± 4.3%
[7]
  KDMPG overall association constant: 18500 M⁻¹

## CCC1(O)CC(=O)OCc2c1cc1n(c2=O)Cc2c-1nc1ccc(N)cc1c2[Si](C)(C)C (racemic) [DB-38, 5-Ethyl-1,4,5,13-tetrahydro-5-hydroxy-10-amino-12-trimethylsilyl-3H,15H-oxepino[3′,4′:6,7]indolizino[1,2-b]quinoline-3,15-dione]
[1]
  KDMPC overall association constant: 1400 M⁻¹
[2]
  Ratio of Lactone Level Mouse/Human: 1.3
  Percent Lactone in Mouse Blood after 3 Hours of Incubation: 72%
[3]; 3 hours
  % Lactone: 81.4 ± 0.3%
[3]; 24 hours
  % Lactone: 34.1 ± 2.2%
[4]; PBS pH 7.4, 3 hours
  % Lactone: 82.8 ± 0.7%
[4]; PBS pH 7.4, 24 hours
  % Lactone: 26.8 ± 2.3%
[5]
  Percent Lactone in Human Blood after 3 Hours of Incubation: 56%
[5]; 3 hours incubation, pH 7.4, 37° C.
  % Lactone: 56.4 ± 0.6%
[6]
  % Lactone: 40.3 ± 2.1%
[7]
  KDMPG overall association constant: 800 M⁻¹

## CCC1(O)CC(=O)OCc2c1cc1n(c2=O)Cc2c-1nc1ccc(O)cc1c2[Si](C)(C)C(C)(C)C (racemic) [DB-91, 5-Ethyl-1,4,5,13-tetrahydro-5-hydroxy-10-hydroxy-12-tert-butyldimethylsilyl-3H,15H-oxepino[3′,4′:6,7]indolizino[1,2-b]quinoline-3,15-dione]
[1]
  decrease in DMPC binding upon ring opening (lactone vs carboxylate): 10 fold
[2]
  underestimation of human blood lactone level by mouse blood: 20%
  Ratio of Lactone Level Mouse/Human: 0.8
  Percent Lactone in Mouse Blood after 3 Hours of Incubation: 70%
[3]; 3 hours
  % Lactone: 82.9 ± 0.3%
[3]; 24 hours
  % Lactone: 33.2 ± 3.0%
[4]; PBS pH 7.4, 3 hours
  % Lactone: 83.1 ± 0.3%
[4]; PBS pH 7.4, 24 hours
  % Lactone: 32.2 ± 1.0%
[5]
  Percent Lactone in Human Blood after 3 Hours of Incubation: 85%
[5]; 24 hours incubation, 37° C.
  % Lactone: 37.1 ± 1.8%
[6]
  % Lactone: 61.5 ± 3.9%
[7]
  KDMPG overall association constant: 4300 M⁻¹
